Assay results as given in patent publication US20130203846A1, “PHENYL CARBAMATE COMPOUNDS FOR USE IN PREVENTING OR TREATING ALS” (Bio-Pharm Solutions Co., Ltd., priority 2011, published 2013).
Marks after values point to notes of the source that are not given here.

Assays:
Assay type in all cases: in vivo, mouse
male ICR mice = assay: MES (maximal electroshock seizure) test, mice; settings: for ED50: Mus musculus, oral, at peak time
Protocol: The obtained results are shown as mean±sem. The difference between the groups was statistically analyzed by ANOVA, and then, further examined by Dunnett's test or Bonferroni test. If p is less than 0.05, it was determined that the difference between the groups had statistical significance.

[1] = tested on: mice expressing mutated human SOD1-G93A transgene; assay: Survival of ALS transgenic mice; settings: TG G93A SOD1 mice
[2] = tested on: mice expressing mutated human SOD1-G93A transgene; assay: Clinical scoring and disease onset of ALS transgenic mice; settings: TG G93A SOD1 mice
Description: Altogether 80 male and female mice expressing mutated human SOD1-G93A transgene (heterozygous TgN-SOD1-G93A-1Gur; Gurney et al. (1994), Science 264, 1772. 1775) and 15 of their wild type littermates were used for the experiments. […] PCR was used to genotype the mice before the start of the experiments.
The animals were grouped as follows: • <Non-transgenic male mice> • Group 1: 15 WT mice treated with vehicle (30% (w/v) polyethyleneclycol 400 (PEG400), once a day, p.o.) starting at 60 days of age and continuing until end-point • <Transgenic G93A SOD1 male mice: ALS-transgenic mice> • Group 2: 20 transgenic mice treated with vehicle (30% (w/v) polyethyleneclycol 400 (PEG400), once a day, p.o.) staring at 60 days of age and continuing until end-point • Group 3: 20 transgenic mice treated with a drug (Compound 1) at dose of 3 mg/kg (once a day, p.o.) staring at 60 days of age and continuing until end-point • Group 4: 20 transgenic mice treated with Compound 1 at dose of 10 mg/kg (once a day, p.o.) staring at 60 days of age and continuing until end-point • Group 5: 20 transgenic mice treated with Compound 1 at dose of 50 mg/kg (once a day, p.o.) staring at 60 days of age and continuing until end-point
Treatment with drug (Compound 1) was started at the age of 60 days and continued until the mice reached 150 days of age. The drug was administered p.o. once a day between 8-12 am. The drug solubilized in 30% (w/v) polyethyleneclycol 400 (PEG400), and the obtained solution was briefly vortexed and sonicated at RT (room temperature) for 20 minutes. Treatment solution of the drug was prepared fresh every day. […]
The earliest clinical signs were tremor and shaking of their limbs when the mice are suspended briefly in the air by their tails. […] Animals were scored by lifting them gently by the base of their tails and observing them for tremors, stiffness and their ability to extend their limbs. […]
Onset of disease for each mouse was recorded when they reach a disease stage 4.

[3] = tested on: mice expressing mutated human SOD1-G93A transgene; assay: Body weight of ALS transgenic mice; settings: TG G93A SOD1 mice; 3, 10, 50 mg/kg p.o. once a day; compared with WT group
Description: (§1) Altogether 80 male and female mice expressing mutated human SOD1-G93A transgene (heterozygous TgN-SOD1-G93A-1Gur; Gurney et al. (1994), Science 264, 1772. 1775) and 15 of their wild type littermates were used for the experiments. […] PCR was used to genotype the mice before the start of the experiments. […]
Since weight loss has proven to correlate well with disease development and is easily scored co-jointly with disease stage, the mice were weighted once-a-week at the age of 60 days to 90 days and three times a week after they reach the age of 91 days (13 weeks).

[4] = tested on: mice expressing mutated human SOD1-G93A transgene; assay: Open field test of ALS transgenic mice; settings: TG G93A SOD1 mice; 3, 10, 50 mg/kg p.o. once a day; baseline, day 90, day 110
Protocol: as §1
Open field test measurements were performed before the dosing is stated (baseline) and around day 90 (13th age week) and day 110 (16th age week). […] Mice were placed in the center of the chamber and their behaviors were recorded for 10 minutes. The following parameters were recorded: distance moved.

male mice (ICR) [5] = assay: Muscle relaxation: grip strength test (forelimbs); settings: i.p., 120 mg/kg administered
Protocol: (§2) For testing, male mice (ICR) were purchased from ORIENT BIO INC. (Korea), divided into several groups with 6 mice in each group, and were adapted for 4-5 days. The mice having the weight ranging from 19 g to 26 g were employed for the test. The pharmacological effect of the test compounds on muscle relaxation was evaluated by Rotarod test, grip strength test, and muscular force (wire hang) test. All mice were adapted to the test environment at one hour before starting the tests. The pharmacological effects of all the test compounds were evaluated by administration through peritoneal cavity of the mice (10 ul/g, bw).
A grip strength test using the test animals' forelimbs was performed using an instrument equipped with triangle ring and designed so as to easily grip with the forelimbs of experimental animals, manufactured from Ugo Basile Inc. (Ugo Basile, Mode147106, Italy). […] The mouse was made to grip the rod with its forelimbs, and its tail was pulled, where the force at which the mouse detached from the rod was recorded. […] This experimentation was conducted according to the method described in the reference, ‘Nevins et al. (1993) Quantitative grip strength assessment as a means of evaluating muscle relaxation in mice. […]
(§3) The results of muscle relaxation activity of the phenyl carbamate compounds measured in above Experimental Examples 1.2 to 1.4 are shown in following Table 3.

male mice (ICR) [6] = assay: Muscle relaxation: wire hang test; settings: i.p., 100 mg/kg administered
Protocol: as §2
This experimentation was conducted using a metal wire of 30 cm in length, which was suspended between two pillars at a height of about 40 cm from the bottom covered with a soft pad. […] Each mouse was made to grip the wire using two forelimbs, and the elapse time before the mouse fell off from the wire to the pad on the bottom was recorded in seconds. Each mouse was given 5 opportunities for this test at an interval of 2 minutes period. The highest 3 records among the test opportunities were selected and the mean value was used as the test result. […]
as §3

[7] = group treated with 10 mg/kg p.o. once a day

Question: Which “MES test (po) Peak Time” value (male ICR mice) does the source give for `CC(OC(N)=O)C(O)c1ccccc1Cl` (racemic) [Compound 3, 1-(2-chlorophenyl)-1-hydroxypropyl-2-carbamate] here?
Answer: Its value is 2 h.

Question: What does the source list for `C[C@H](OC(N)=O)[C@@H](O)c1ccccc1Cl` [Compound 1, 1-(2-chlorophenyl)-(S)-1-hydroxypropyl-(S)-2-carbamate]?
Answer: MES test (po) Peak Time (male ICR mice): 2 h; rate (%) of survivor according to survival time (FIG. 1) ([1]; 3, 10, 50 mg/kg p.o. once a day from 60 days of age, early stage of ALS): survival time is extended; effect to increase the survival rate at early stage of ALS (FIG. 1) [1, 7]: especially remarkable; rate (%) of survivor according to disease onset time (FIG. 2) ([2]; 3, 10, 50 mg/kg p.o. once a day, onset = disease stage 4): delay the disease onset; clinical score of each group (FIG. 4) ([2]; 3, 10, 50 mg/kg p.o. once a day, scale 1 to 5, compared to TG vehicle group): clinical scores were increased by administration of the drug in the dose-dependent manner; effect to delay the disease onset (FIG. 2) [2, 7]: especially remarkable; body weight of each group (FIG. 3) [3]: body weight loss compared with WT group was decrease by administration of the drug in the dose-dependent manner; distance moved, open field test (FIG. 5) [4]: some differences between treatments group of transgenic mice

Question: Which “MES test (po) Peak Time” value (male ICR mice) does the source give for `C[C@@H](OC(N)=O)[C@H](O)c1ccccc1Cl` [Compound 2, 1-(2-chlorophenyl)-(R)-1-hydroxypropyl-(R)-2-carbamate] here?
Answer: The value was 0.25 h.

Question: Which “MES test (po) Peak Time” value (male ICR mice) does the source give for `C[C@H](OC(N)=O)[C@H](O)c1ccccc1Cl` [Compound 5, 1-(2-chlorophenyl)-(R)-1-hydroxypropyl-(S)-2-carbamate] here?
Answer: The value was 0.5 h.

Question: What does the source list for `CC[C@H](OC(N)=O)[C@@H](O)c1ccccc1Cl` [Compound 6, 1-(2-chlorophenyl)-(S)-1-hydroxybutyl-(S)-2-carbamate]?
Answer: MES test (po) Peak Time (male ICR mice): 1 h; ED50 (male ICR mice): 22.2 mg/kg

Question: `CC(C)[C@H](OC(N)=O)[C@@H](O)c1ccccc1Cl` [Compound 9, 1-(2-chlorophenyl)-(S)-1-hydroxy-3-methyl-butyl-(S)-2-carbamate] was tested. Which “MES test (po) Peak Time” value (male ICR mice) did it give?
Answer: Its value is 0.5 h.

Question: And the ED50 (male ICR mice)?
Answer: The ED50 was 67.1 mg/kg.

Question: `C[C@H](OC(N)=O)[C@@H](O)c1ccc(Cl)cc1Cl` [Compound 36, 1-(2,4-dichlorophenyl)-(S)-1-hydroxypropyl-(S)-2-carbamate] was tested. Which ED50 (male ICR mice) did it give?
Answer: The ED50 was 82.8 mg/kg.

Question: With `C[C@H](OC(N)=O)[C@@H](O)c1c(Cl)cccc1Cl` [Compound 37, 1-(2,6-dichlorophenyl)-(S)-1-hydroxypropyl-(S)-2-carbamate] as the compound, how does the “MES test (po) Peak Time” value (male ICR mice) read?
Answer: Its value is 0.25 h.

Question: `C[C@H](OC(N)=O)[C@@H](O)c1cccc(Cl)c1Cl` [Compound 38, 1-(2,3-dichlorophenyl)-(S)-1-hydroxypropyl-(S)-2-carbamate] was tested. Which “MES test (po) Peak Time” value (male ICR mice) did it give?
Answer: The value was 2 h.

Question: What about the ED50 (male ICR mice) of the same compound?
Answer: Its ED50 is 91.4 mg/kg.

Question: Which “MES test (po) Peak Time” value (male ICR mice) does the source give for `CC[C@H](OC(N)=O)[C@@H](O)c1ccc(Cl)cc1Cl` [Compound 39, 1-(2,4-dichlorophenyl)-(S)-1-hydroxybutyl-(S)-2-carbamate] here?
Answer: Its value is 1 h.

Question: And the ED50 (male ICR mice)?
Answer: The ED50 was 41.2 mg/kg.

Question: For `CC[C@H](OC(N)=O)[C@@H](O)c1c(Cl)cccc1Cl` [Compound 40, 1-(2,6-dichlorophenyl)-(S)-1-hydroxybutyl-(S)-2-carbamate], which ED50 (male ICR mice) is on record?
Answer: The ED50 was 46.9 mg/kg.

Question: How did the “MES test (po) Peak Time” value (male ICR mice) turn out when `CC(C)[C@H](OC(N)=O)[C@@H](O)c1c(Cl)cccc1Cl` [Compound 42, 1-(2,6-dichlorophenyl)-(S)-1-hydroxy-3-methyl-butyl-(S)-2-carbamate] was run?
Answer: The value was 0.5 h.

Question: And the ED50 (male ICR mice)?
Answer: Its ED50 is 35.2 mg/kg.

Question: Which “MES test (po) Peak Time” value (male ICR mice) does the source give for `C[C@@H](OC(N)=O)[C@H](O)c1c(Cl)cccc1Cl` [Compound 46, 1-(2,6-dichlorophenyl)-(R)-1-hydroxypropyl-(R)-2-carbamate] here?
Answer: The value was 1 h.

Question: What about the ED50 (male ICR mice) of the same compound?
Answer: The ED50 was 35.2 mg/kg.

Question: How did the “Grip strength: effect (%) compared to that of control treated with vehicle only” value (male mice (ICR) [5]) turn out when `C[C@@H](OC(N)=O)[C@H](O)c1ccccc1F` [Compound 64, 1-(2-fluorophenyl)-(R)-1-hydroxypropyl-(R)-2-carbamate] was run?
Answer: The value was 120 ^a (35.4%).

Question: And the “Wire hang: effect (%) compared to that of control treated with vehicle only” value (male mice (ICR) [6])?
Answer: Its value is 100 ^a (30.8%).
